Test results from patent US9327008B2, “Cell-permeant peptide-based inhibitor of kinases” (Purdue Research Foundation, priority 2008, dated 2016).

Assays:
10 Human Kinases = assay: Specificity of complete inhibitor peptide variants on 10 human kinases; format: biochemical; conditions: Table 5
Experimental: A commercial radiometric assay service (Millipore, Billerica, Mass.) was used to test the specificity and potency of peptides containing a coupled transduction domain and therapeutic domain, hereinafter “complete peptides”). In these assays, if the kinase is not inhibited by an inhibitor peptide, a positively charged substrate is phosphorylated with a radiolabeled phosphate group from an ATP.
IC50 values for inhibitor peptides were determined using Millipore's IC50Profiler Express service. The IC50 value was estimated from a 10-point curve of one-half log dilutions. For peptides tested for specificity, the concentration of the peptides that inhibited approximately 95% of MK2 activity was chosen to profile against a battery of kinases related to MK2, cell viability, or human disease from MilliporeKinaseProfiler service. In both assays, compounds were supplied in dimethylsulfoxide (DMSO). Every kinase activity measurement was conducted in duplicate.
Additional therapeutic inhibitor peptide variants were assayed for activity against several human kinases representative of several families of kinases. […]

[1] = system: IL-1β expression in rat primary cortical astrocyte cultures; conditions: 1 mM or 3 mM MK2i with TNF-α 5 or 10 ng/ml; 18-22 hours
Experimental: Primary rat astrocytes were isolated from embryonic day 18 Sprague Dawley rat cortices. […] Briefly, the rat cortexes were triturated with a 1 ml pipet aid until most of the large cortex pieces were dispersed. After larger tissue fragments were allowed to settle, the supernatant was collected, in a 15 ml conical tube, and pelleted by centrifugation at 1100 rpm for 1 minute. The resulting supernatant was discarded and the pellet resuspended in neurobasal media (10% horse serum, 3 mM glutamine). The astrocytes then were seeded in the petri dishes and grown until they were confluent (80-95%) after which time they were passed. Astrocytes were passed 1:4, grown to 80-95% confluency, then rinsed twice with PBS. Different treatment types were applied to each corresponding petri dish for 18-22 hours. There was a total of 1 ml of media (neurobasal media with 10% horse serum, 3 mM glutamine) plus treatment in each petri dish. […]
After 18-22 hours, the cells were rinsed with PBS, scraped into a small centrifuge tube using a lysis buffer (8 M urea, 4% CHAPS, 10 mM DTT), and disrupted by using a Disruptor Genie™ (Scientific Industries, Bohemia, N.Y.) for 2 hours. The cells were pelleted by centrifugation at 17 krpm for 15 minutes, the supernatant (cell lysate) collected and the total protein concentration quantified (Pierce BCA Protein Assay kit, Thermo Fisher Scientific, Rockford, Ill.).

WLRRIKAWLRRIKALNRQLGVAA
specificity among therapeutic inhibitor peptides (in words) (10 Human Kinases): least specificity

YARAAARQARAKALARQLGVAA
level of expression of IL-1β (FIG. 10) [1]: able to inhibit
